Like-named read-outs stand apart in the source and are kept apart here.
Tests used:
rat stroke model = conditions: in vivo; cited from earlier work
[1] = tested on: IL-1 beta-induced coronary stenosis; conditions: long term treatment; cited from earlier work
[2] = tested on: neointimal formation in rats; conditions: cited from earlier work
Dahl salt-sensitive rats = conditions: rat, in vivo; cited from earlier work
[3] = tested on: spontaneously hypertensive rat, renal hypertensive rat and deoxycortisone acetate salt hypertensive rat models; conditions: cited from earlier work
ROCKII (1-543) [4] = molecular target: T1, ROCKII (1-543) (Homo sapiens (Human), UniProt O75116); assay: IMAP Assay (Assay 2); assay type: biochemical; conditions: IMAP fluorescence polarization; 100 μM ATP, 1 nM kinase
Experimental: This assay is performed using FAM S6 substrate peptide (Catalogue #R7184) and IMAP FP Screening Express Kit detection reagents from Molecular Devices (Sunnyvale, Calif.) in IMAP kinase reaction buffer (Tris-HCl, pH 7.2, 10 mM MgCl2, 0.05% NaN3, 0.1% phosphate-free BSA) containing 1 mM DTT. Test compounds dissolved in neat DMSO at 0.3 mg/mL are serially diluted 1 to 3 for concentration response in 100% DMSO. The DMSO serial dilutions are further diluted 33.33-fold in kinase reaction buffer, and 10 μL of this buffer dilution is transferred to Corning black 96-well half area NBS plates for a final top concentration of 3 μg/mL in 1% DMSO. 10 μL aliquot of 3 nM ROCKII (1-543) diluted in kinase reaction buffer is added to each assay well for a final concentration of 1 nM kinase. 10 μL of a mixture of 600 nM FAM S6 peptide and 300 μM ATP diluted in kinase reaction buffer is added to each well for a final concentration of 200 nM peptide and 100 μM ATP. The kinase reaction mixture is incubated for 60 minutes at room temperature. Positive controls are reaction mixtures containing no test compound and negative controls (blanks) are reaction mixtures containing no kinase. The kinase reaction is stopped by addition of 60 μL IMAP progressive binding reagent (Catalog #R7284) diluted 400-fold in 1× Binding buffer A. After 30 min of incubation at room temperature, the plates are read for fluorescence polarization on Analyst Plate Reader using Ex 485 nm, Em 530 nm, and FL 505 dichroic minor. The mP signals are converted to percent of control (POC) values using the formula: POC=100*(Signal−BCTRL)÷(PCTRL−BCTRL)
Where Signal is the test well signal, BCTRL is the average of background (negative control) well signals on the plate and PCTRL is the average of positive control well signals on the plate. For the concentration-responsive compounds, POC as a function of test compound concentration is fitted to a 4-parameter logistic equation of the form: Y=A+(B−A)/[1+(x/C)D]
Where A, B, C, and D are fitted parameters (parameter B is fixed at zero POC), and x and y are the independent and dependent variables, respectively. The IC50 is determined as the inflection point parameter, C.
Target sequence in this assay (O75116 1-543, species assumed): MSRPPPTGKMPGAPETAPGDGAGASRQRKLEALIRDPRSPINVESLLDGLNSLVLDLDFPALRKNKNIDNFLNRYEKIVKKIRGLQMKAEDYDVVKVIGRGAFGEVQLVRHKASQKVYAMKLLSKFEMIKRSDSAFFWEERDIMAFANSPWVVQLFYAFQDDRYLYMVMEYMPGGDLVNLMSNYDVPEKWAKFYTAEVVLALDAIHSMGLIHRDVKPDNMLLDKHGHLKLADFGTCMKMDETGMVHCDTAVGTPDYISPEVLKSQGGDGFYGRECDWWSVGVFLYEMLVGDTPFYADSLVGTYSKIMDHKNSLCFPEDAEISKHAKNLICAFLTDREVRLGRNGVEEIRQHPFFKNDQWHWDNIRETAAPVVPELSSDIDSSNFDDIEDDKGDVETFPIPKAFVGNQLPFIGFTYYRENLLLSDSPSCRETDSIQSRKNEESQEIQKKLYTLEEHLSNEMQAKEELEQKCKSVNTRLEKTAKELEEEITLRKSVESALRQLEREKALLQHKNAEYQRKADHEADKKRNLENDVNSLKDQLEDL

ROCKII (1-543) [5] = molecular target: T1, ROCKII (1-543); assay: Luciferin-Luciferase Assay (Assay 1); assay type: biochemical; conditions: luciferin-luciferase residual ATP; 750 nM ATP, 7.5 nM kinase
Target sequence in this assay (O75116 1-543): as the sequence (O75116 1-543, species assumed) above

| SMILES | IC50 (ROCKII (1-543) [4]) | IC50 (ROCKII (1-543) [5]) | other results |
| --- | --- | --- | --- |
| O=S(=O)(c1cccc2cnccc12)N1CCCNCC1 [fasudil] | – | – | infarct size and neurologic deficit (rat stroke model): reduce both the infarct size and neurologic deficit; coronary constrictive remodeling [1]: promote a regression of coronary constrictive remodeling; coronary stenosis [1]: progressively reduce coronary stenosis |
| C[C@@H](N)[C@H]1CC[C@H](C(=O)Nc2ccncc2)CC1 [Y-27632] | – | – | neointimal formation [2]: inhibited neointimal formation; ventricular hypertrophy and function (Dahl salt-sensitive rats): improve ventricular hypertrophy and function; effect on blood pressure ([3]; control rats): only a minor effect on blood pressure; effect on blood pressure ([3]; three rat models of hypertension): significantly decrease blood pressure |
| CN1CCc2ccc(NC(=O)c3cccc(CNC(=O)c4ccc(-n5cncn5)cc4)c3)cc2C1 [compound 178, 4-[1,2,4]triazol-1-yl-benzoic acid 3-(2-methyl-1,2,3,4-tetrahydro-isoquinolin-7-ylcarbamoyl)-benzylamide] | 48 nM | 5.7 nM | – |
| Cc1cc(-c2ncc(C(=O)NCc3cccc(C(=O)Nc4nc5c(s4)CN(C)CC5)c3)s2)ccn1 [compound 154] | 39 nM | 9.5 nM | – |
| CN1CCc2nc(NC(=O)c3cccc(CNC(=O)c4cn5ccc(C#N)cc5n4)c3)sc2C1 [compound 66] | 12 nM | 2.5 nM | – |

More lines, in order of falling IC50 (ROCKII (1-543) [4]), values ahead:

| IC50 (ROCKII (1-543) [4]) | IC50 (ROCKII (1-543) [5]) | SMILES | other results |
| --- | --- | --- | --- |
| 2 nM | 1.2 nM | N[C@H]1CCc2nc(NC(=O)c3cccc(CNC(=O)c4cccc(-c5cccnc5)c4)c3)sc2C1 [compound 42] | – |
| 1.4 nM | 1.2 nM | Cc1nc(-c2ccncc2)sc1C(=O)NCc1cccc(C(=O)Nc2nc3c(s2)CN(C)CC3)c1 [compound 76] | – |
| 1.2 nM | 2.1 nM | Cc1sc(-c2ccncc2)nc1C(=O)NCc1cccc(C(=O)Nc2nc3c(s2)CN(C)CC3)c1 [compound 58] | – |
| 0.85 nM | 1.7 nM | CN1CCc2ccc(NC(=O)c3cccc(CNC(=O)c4cc5cc(C(N)=O)ccc5[nH]4)c3)cc2C1 [compound 86] | – |
| 0.53 nM | 2 nM | CN1CCc2nc(NC(=O)c3cccc(CNC(=O)c4cccc(-c5cn[nH]c5)c4)c3)sc2C1 [compound 6] | – |
